Experimental data taken from PubChem BioAssay AID1963963 (Molecular Pharmacology Branch, DTP, NCI, 2024).

Tested on: 958667-338-R-J2-PDC tumor spheroids viability
Assay: Anticancer human tumor 958667-338-R-J2-PDC patient-derived colon adenocarcinoma cell line growth inhibition [PI3K]
Conditions: spheroids with HUVEC and MSC; for IC50: curve of first compound; for viability, T/C: stronger effect = lower value
Method in brief: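 Tumor cells grown as multi-cell spheroids with HUVEC endothelial cells and MSC fibroblast-like stroma were treated with targeted agents combined with inavolisib, alpelisib, duvelisib or copanlisib. Doses fell in half-log steps from near clinical Cmax, else from 10 microM. Viability was measured.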

[1] = second compound 0.0316 µM, first compound 0.0316 µM
[2] = second compound 0.0316 µM, first compound 0.1 µM
[3] = second compound 0.0316 µM, first compound 0.316 µM
[4] = second compound 0.0316 µM, first compound 1 µM
[5] = second compound 0.0316 µM, first compound 3.16 µM
[6] = second compound 0.0316 µM, first compound 10 µM
[7] = second compound 0.1 µM, first compound 0.0316 µM
[8] = second compound 0.1 µM, first compound 0.1 µM
[9] = second compound 0.1 µM, first compound 0.316 µM
[10] = second compound 0.1 µM, first compound 1 µM
[11] = second compound 0.1 µM, first compound 3.16 µM
[12] = second compound 0.1 µM, first compound 10 µM
[13] = second compound 0.316 µM, first compound 0.0316 µM
[14] = second compound 0.316 µM, first compound 0.1 µM
[15] = second compound 0.316 µM, first compound 0.316 µM
[16] = second compound 0.316 µM, first compound 1 µM
[17] = second compound 0.316 µM, first compound 3.16 µM
[18] = second compound 0.316 µM, first compound 10 µM
[19] = second compound 1 µM, first compound 0.0316 µM
[20] = second compound 1 µM, first compound 0.1 µM
[21] = second compound 1 µM, first compound 0.316 µM
[22] = second compound 1 µM, first compound 1 µM
[23] = second compound 1 µM, first compound 3.16 µM
[24] = second compound 1 µM, first compound 10 µM
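Also: spheroids exposed to compounds for seven days before readout.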

Compound: Cn1nccc1Nc1nccc(-c2ccn(C(CO)c3ccc(Cl)c(F)c3)c(=O)c2)n1 (centres undefined) + Cc1nc(NC(=O)N2CCCC2C(N)=O)sc1-c1ccnc(C(C)(C)C(F)(F)F)c1
- IC50 (second compound 0.0316 µM): > 10 µM
- IC50 (second compound 0.1 µM): > 10 µM
- IC50 (second compound 0.316 µM): > 10 µM
- IC50 (second compound 1 µM): 8.05 µM
- IC50 (second compound 3.16 µM): 3.66 µM
- IC50 (second compound 10 µM): 1.6 µM
- viability, T/C [1]: 113%
- viability, T/C [2]: 105%
- viability, T/C [3]: 119%
- viability, T/C [4]: 101%
- viability, T/C [5]: 79.5%
- viability, T/C [6]: 77.2%
- viability, T/C [7]: 137%
- viability, T/C [8]: 98%
- viability, T/C [9]: 97.2%
- viability, T/C [10]: 79.8%
- viability, T/C [11]: 75%
- viability, T/C [12]: 71.8%
- viability, T/C [13]: 99.6%
- viability, T/C [14]: 92.8%
- viability, T/C [15]: 91.3%
- viability, T/C [16]: 72%
- viability, T/C [17]: 82.2%
- viability, T/C [18]: 67.4%
- viability, T/C [19]: 101%
- viability, T/C [20]: 85.9%
- viability, T/C [21]: 84.5%
- viability, T/C [22]: 68.8%
- viability, T/C [23]: 77.8%
- viability, T/C [24]: 42.1%
- viability, T/C (second compound 3.16 µM, first compound 0.0316 µM): 65.8%
- viability, T/C (second compound 3.16 µM, first compound 0.1 µM): 78.8%
- viability, T/C (second compound 3.16 µM, first compound 0.316 µM): 74.6%
- viability, T/C (second compound 3.16 µM, first compound 1 µM): 90.4%
- viability, T/C (second compound 3.16 µM, first compound 3.16 µM): 56.6%
- viability, T/C (second compound 3.16 µM, first compound 10 µM): 4.78%
- viability, T/C (second compound 10 µM, first compound 0.0316 µM): 68%
- viability, T/C (second compound 10 µM, first compound 0.1 µM): 55.8%
- viability, T/C (second compound 10 µM, first compound 0.316 µM): 67.1%
- viability, T/C (second compound 10 µM, first compound 1 µM): 72.4%
- viability, T/C (second compound 10 µM, first compound 3.16 µM): 26.9%
- viability, T/C (second compound 10 µM, first compound 10 µM): 5.35%

Compound: C[C@@H](NC(=O)c1ncnc(N)c1Cl)c1ncc(C(=O)Nc2cc(C(F)(F)F)c(Cl)cn2)s1 + COc1c(OCCCN2CCOCC2)ccc2c3n(c(=NC(=O)c4cnc(N)nc4)nc12)CCN3
- IC50 (second compound 0.00316 µM): > 10 µM
- IC50 (second compound 0.01 µM): > 10 µM
- IC50 (second compound 0.0316 µM): > 10 µM
- IC50 (second compound 0.1 µM): > 10 µM
- IC50 (second compound 0.316 µM): < 0.0316 µM
- IC50 (second compound 1 µM): < 0.0316 µM
- viability, T/C (second compound 0.00316 µM, first compound 0.0316 µM): 96.1%
- viability, T/C (second compound 0.00316 µM, first compound 0.1 µM): 88.5%
- viability, T/C (second compound 0.00316 µM, first compound 0.316 µM): 107%
- viability, T/C (second compound 0.00316 µM, first compound 1 µM): 110%
- viability, T/C (second compound 0.00316 µM, first compound 3.16 µM): 116%
- viability, T/C (second compound 0.00316 µM, first compound 10 µM): 66.7%
- viability, T/C (second compound 0.01 µM, first compound 0.0316 µM): 96.3%
- viability, T/C (second compound 0.01 µM, first compound 0.1 µM): 96.8%
- viability, T/C (second compound 0.01 µM, first compound 0.316 µM): 111%
- viability, T/C (second compound 0.01 µM, first compound 1 µM): 89.5%
- viability, T/C (second compound 0.01 µM, first compound 3.16 µM): 69.9%
- viability, T/C (second compound 0.01 µM, first compound 10 µM): 72.1%
- viability, T/C [1]: 78.9%
- viability, T/C [2]: 88.3%
- viability, T/C [3]: 77.5%
- viability, T/C [4]: 84.3%
- viability, T/C [5]: 86.1%
- viability, T/C [6]: 76.2%
- viability, T/C [7]: 62.2%
- viability, T/C [8]: 70.8%
- viability, T/C [9]: 68.1%
- viability, T/C [10]: 82.1%
- viability, T/C [11]: 83.2%
- viability, T/C [12]: 59.8%
- viability, T/C [13]: 34.3%
- viability, T/C [14]: 37.2%
- viability, T/C [15]: 44.1%
- viability, T/C [16]: 42%
- viability, T/C [17]: 57.3%
- viability, T/C [18]: 34.2%
- viability, T/C [19]: 20.4%
- viability, T/C [20]: 19.5%
- viability, T/C [21]: 20.1%
- viability, T/C [22]: 20.9%
- viability, T/C [23]: 15.2%
- viability, T/C [24]: 5.92%
